Reference: patent publication US20130323283A1, “COMPOSITIONS AND METHODS FOR TREATING FOXP3+ TREG RELATED DISEASES” (THE CHILDREN'S HOSPITAL OF PHILADELPHIA, priority 2010, published 2013)

What was measured:
[1] = system: cardiac allografts; assay: cardiac allograft model (BALB/c hearts into B6 RAG-/- recipients with adoptive transfer); format: in vivo, mice
Excerpt: The effects of several HAT inhibitors (HATi) in a cardiac allograph model were studied in three experiments. This model involved vascularized cardiac allografts from BALB/c donors transplanted into immunodeficient C57BL/6 RAG−/− (B6 RAG−/−) recipients. The recipients were adoptively transferred with 1×10^6 purified C57BL/6 Teff cells (CD4+CD25−) alone or in combination with 0.5×10^6 purified Treg cells (CD4+CD25+). The cardiac allograft survival rates of the allograft recipients were monitored over a period of 120 days post-transplant.
In the first experiment, the allograft recipients were adoptively transferred with 1×10^6 Teff cells and 0.5×10^6 purified Tregs (CD4+CD25+), and treated with DMSO (control) or a HAT inhibitor via Alzet pump. Four HAT inhibitors were tested. […] One was a PCAF/GCN5 inhibitor, Lys-20-CoA-Tat. […] Rejection was defined as cessation of heartbeat.
The p300i was delivered to the allograft recipients at 0.9 mg/kg/d for 14 d using Alzet pumps.
In the third experiment, B6/RAG−/− mice (n=4/grp) were engrafted with fully MHC-mismatched BALB/c cardiac grafts and adoptively transferred with WT B6 Teff cells (1×10^6) alone or plus Tregs (0.5×10^6). […] Use of p300−/− Tregs was also unable to suppress Teff cells and prolong allograft survival in this adoptive transfer model.

[2] = system: Tregs and Teff cells; assay: Treg suppression assays with cells purified from treated mice; format: in vivo; details: Treg:Teff 2:1 to 0:1
Excerpt: (§1) Treg and Teff cells were purified using magnetic beads from DMSO- or p300i-treated mice.

[3] = system: TC1 lung cancer cells; assay: TC1 lung cancer tumor growth in immunodeficient RAG-/- mice; format: in vivo
Description: TC1 lung cancer cells were injected in the flanks of RAG−/− mice. […] Tumors were harvested from the mice 17 days post-tumor injection. Tumor volume was monitored on days 0, 5, 10, 13 and 17 post-tumor injection. […] Tumors were exposed to C646 in RAG−/− mice. […] No effects on acetylation of certain p300-independent targets in the tumor extracts was observed (e.g. acetylation of alpha-tubulin was unimpaired).

[4] = system: Tregs; assay: in vitro murine Treg suppression assay (CFSE-labeled Teff proliferation); format: cell-based; details: for % proliferating cells: 5 μM, 72 hours
Description: Med. (2007) 13:1299-307, the contents of which are incorporated by their entireties. In these assays, effector T cells (Teffs) were labeled with carboxyfluorescein diacetate succinimidyl ester (CFSE), and stimulated by CD3 mAb plus irradiated antigen presenting cells (APCs). […] The percentage of proliferating CFSE-labeled Teffs in each mixture was assessed by flow cytometry after 72 hours as shown in Table 1.

[5] = system: B6 mice; assay: T cell proportions in lymph nodes and spleen of treated mice; format: in vivo; details: for CD4 proportion / CD8 proportion / CD62L CD44 proportion / Foxp3+ CD4 proportion: 0.9 mg/kg/day via Alzet pump for 7 days
Description: as §1
The proportions of CD4, CD8, Foxp3+ CD4, or CD62L CD44 (markers of memory vs. naive T cells) cells in lymph nodes (LN) and spleen (SP) of DMSO- and C646-treated mice were determined as shown in Table 4.

[6] = system: CFSE-labeled T cells; assay: second parent-to-F1 assay (B6 T cells into B6D2F1 mice); format: in vivo; details: 0.9 mg/kg/d for 3 days by Alzet pumps
Excerpt: The percentages of CFSE-labeled CD4 proliferating cells from DSMO- and C646-treated mice were 94.5% and 95.0%, respectively. The percentages of CFSE-labeled CD8 proliferating or dividing cells from DSMO- and C646-treated mice were 78.5% and 81.6%, respectively. Donor CD4 and CD8 cells (H-2d negative) from both groups had similar alloantigen-induced activation and proliferation (p>0.05).

[7] = system: Treg and Teff cells; assay: Treg and Teff gene expression in vitro by qPCR; format: cell-based; details: 5 μM, 24 hours, CD3/CD28 mAbs plus IL-2
Description: Gene expression Foxp3, CTLA-4, GITR and TGF-β in the activated Treg and Teff cells was determined by qPCR (mean±SD, n=3/grp) and normalized to 18S.

[8] = system: TC1 lung cancer cells; assay: TC1 lung cancer tumor growth in WT B6 mice; format: in vivo
Description: In the second experiment, p300 inhibition was achieved by using a p300 inhibitor. TC1 lung cancer cells were injected in the flanks of WT B6 mice. […] Tumor volume was monitored in the mice on days 6, 10, 12, 15 and 19 post-tumor injection (FIG. 5B). […] DMSO- and C646-treated mice having tumors were obtained as described in Example 9. […] The growth of tumors in the mice was monitored by tumor volume and tumor weight (FIG. 6B).

[9] = system: CFSE-labeled CD4 and CD8 cells; assay: first parent-to-F1 assay (C57BL/6->DBA/B6), alloantigen-induced T cell proliferation in vivo; design: species or system mice; details: 0.8 mg/kg/d continuous via Alzet pump; 3 day assay
Excerpt: In the first parent-to-F1 assay (C57BL/6->DBA/B6) (Tao et al., J. Immunol. (2005) 175:5774-82; Tao et al., J. Immunol. (2008) 180:6649-55; the contents of both of which are incorporated herein in their entireties), activation and proliferation of adoptively transferred CFSE-labeled CD4 and CD8 cells was monitored by flow cytometry in a 3 day assay. […] The percentages of CFSE-labeled CD4 proliferating or dividing cells from DSMO- and C646-treated mice were 65% and 73%, respectively. The percentages of CFSE-labeled CD8 proliferating or dividing cells from DSMO- and C646-treated mice were 93% and 95%, respectively.

[10] = system: Treg and Teff cells; assay: gene expression by Treg and Teff cells from treated mice (qPCR); format: in vivo; details: cells from mice given 0.9 mg/kg/day for 7 days
Description: as §1
Gene expression by Treg and Teff cells from DSMO- or C646-treated mice (four mice/group) was analyzed by qPCR.

[11] = system: Teffs and Tregs; assay: CD4+ Foxp3+ proportion and MFI in Teffs and Tregs by flow cytometry; format: cell-based; details: 6 hours
Description: Teffs and Tregs were isolated, and treated with 5, 10, or 20 μM p300i or DMSO for 6 hours. Flow cytometry was used to determine the CD4+ Foxp3+ proportion in Teffs or Tregs (Table 2) and the mean fluorescent intensity (MFI) of CD4+ Foxp3+ cells in Teffs or Tregs (Table 3) before or after being treated with p300i or DMSO.

[12] = compared with DMSO-treated mice, p<0.005
[13] = qPCR, tumors from treated mice vs DMSO

CC1=NN(c2ccc(C(=O)O)cc2)C(=O)/C1=C\c1ccc(-c2cc(C)c(C)cc2[N+](=O)[O-])o1 [C646]
cardiac allograft rejection (cessation of heartbeat) ([1]; first experiment: 1×10^6 Teff plus 0.5×10^6 Tregs, HAT inhibitor via Alzet pump, DMSO gave long-term survival): restored rejection | Teff cell responses in vivo (allograft rejection) ([1]; second experiment: Teff cells alone plus p300i 0.9 mg/kg/d for 14 d, Alzet pumps): does not suppress Teff cell responses in vivo | graft function (isografts) ([1]; second experiment: WT B6 mice with normal B6 hearts): does not directly affect graft function | T cell-dependent graft rejection ([1]; third experiment: Teff plus Tregs, Alzet pumps for 14 days): restored T cell-dependent graft rejection | ability of Tregs to suppress proliferation of Teff cells from untreated mice ([2]; Tregs from C646-treated mice, p<0.05): decreased | response of Teff cells from treated mice to suppression by control normal Tregs ([2]; Tregs from untreated mice): responded normally | tumor growth (tumor volume) ([3]; Alzet pumps from day 5, up to day 17): did not impair tumor growth | acetylation of histone 3 in tumor extracts ([3]; compared to DMSO-treated mice): Decreased acetylation of histone 3 | acetylation of alpha-tubulin in tumor extracts ([3]; p300-independent target): unimpaired | suppressive actions of Tregs ([4]; HATi 5 μM): largely abrogated the suppressive actions of Tregs | % proliferating cells ([4]; Treg:Teff 0:1): 88% | % proliferating cells ([4]; Treg:Teff 1:1): 66% | % proliferating cells ([4]; Treg:Teff 1:2): 70% | % proliferating cells ([4]; Treg:Teff 1:4): 78% | % proliferating cells ([4]; Treg:Teff 1:8): 85% | effect on the proportions of the tested cells (CD4, CD8, Foxp3+ CD4, CD62L CD44) ([5]; LN and SP, compared to DMSO-treated mice, 0.9 mg/kg/day, 7 days): negligible effect | CD4 proportion ([5]; LN): 35 | CD8 proportion ([5]; LN): 34 | CD62L CD44 proportion ([5]; LN): 6 | Foxp3+ CD4 proportion ([5]; LN): 8 | CD4 proportion ([5]; SP): 18 | CD8 proportion ([5]; SP): 12 | CD62L CD44 proportion ([5]; SP): 12 | Foxp3+ CD4 proportion ([5]; SP): 13 | percentage of CFSE-labeled CD4 proliferating cells [6]: 95.0% | percentage of CFSE-labeled CD8 proliferating or dividing cells [6]: 81.6% | Treg expression of GITR gene [7]: downregulated | Treg expression of CTLA-4 gene ([7]; statistical significance): downregulated | Treg expression of Foxp3 gene ([7]; statistical significance): downregulated | Treg expression of TGF-β gene ([7]; statistical significance): downregulated | tumor growth (tumor volume) ([8]; 0.9 mg/kg/day for about 14 days via Alzet pumps from day 6, days 6-19): suppressed tumor growth | tumor growth by volume [8, 12]: significantly reduced | tumor growth by weight [8, 12]: significantly reduced | intratumoral CD4 mRNA [8, 13]: significantly increased | intratumoral CD8 mRNA [8, 13]: comparable | intratumoral Foxp3 mRNA [8, 13]: significantly reduced | intratumoral granzyme B mRNA [8, 13]: significantly increased | IFN-γ production by purified CD8 (ELISPOT) ([8]; tumor-bearing treated mice): increased | alloantigen-induced T cell activation or proliferation (CFSE dilution) or production of cytokines such as IL-2 and IFN-γ [9]: did not impair | percentage of CFSE-labeled CD4 proliferating or dividing cells [9]: 73% | percentage of CFSE-labeled CD8 proliferating or dividing cells [9]: 95% | expression of CTLA4 by Treg cells ([10]; p<0.01): significantly decreased | expression of GITR by Treg cells ([10]; p<0.01): significantly decreased | expression of IL-10 by Treg cells ([10]; p<0.01): significantly decreased | expression of TGF-β by Treg cells ([10]; p<0.01): significantly decreased | expression of CTLA4, GITR, IL-10 and TGF-β by Teff cells ([10]; p>0.05): unchanged | mean fluorescent intensity (MFI) of CD4+ Foxp3+ cells ([11]; Teff, 5 μM): 121 | mean fluorescent intensity (MFI) of CD4+ Foxp3+ cells ([11]; Teff, 10 μM): 108 | mean fluorescent intensity (MFI) of CD4+ Foxp3+ cells ([11]; Teff, 20 μM): 91 | CD4+ Foxp3+ proportion ([11]; Teffs, 5 μM): 2 | CD4+ Foxp3+ proportion ([11]; Teffs, 10 μM): 2 | CD4+ Foxp3+ proportion ([11]; Teffs, 20 μM): 1 | mean fluorescent intensity (MFI) of CD4+ Foxp3+ cells ([11]; Treg, 5 μM): 280 | mean fluorescent intensity (MFI) of CD4+ Foxp3+ cells ([11]; Treg, 10 μM): 253 | mean fluorescent intensity (MFI) of CD4+ Foxp3+ cells ([11]; Treg, 20 μM): 138 | CD4+ Foxp3+ proportion ([11]; Tregs, 5 μM): 71 | CD4+ Foxp3+ proportion ([11]; Tregs, 10 μM): 68 | CD4+ Foxp3+ proportion ([11]; Tregs, 20 μM): 49
